Reference: patent US20090061022A1, “Pharmaceutical composition comprising arsenite for the treatment of malignancy” (priority 2004, published 2009)
Values joined by “and” are separate entries in the source; they are usually repeats but may differ in a detail not shown here. Equal entries are not always repeated.

What was measured:
[1] = system: panel of 9 human cancer cell lines; assay: Cytotoxic activity, whole panel of 9 human cancer cell lines (means, active/total); assay type: cell-based
Experimental: Three kinds of stock solutions were prepared for in vitro cytotoxic activity test. The first solution is DMSO (dimethyl sulfoxide) mixed with sodium meta-arsenite. […] The third solution is DMSO mixed with arsenic acid sodium salt. Those three solutions were diluted with culture medium (RPMI 1640). The final concentrations of DMSO in those three solutions are less than 0.3 vol %.
(§1) Nine kinds of human cancer cell lines out of six kinds of cancers were grown at 37° C. under a controlled atmosphere of 95% air and 5% CO2. The cells were grown on monolayer cultures of RPMI 1640 cell culture medium supplemented with 10% fetal calf serum.
(§2) The grown cells were harvested from exponential phase cultures by trypsinization and counted. The counted cells were placed in a plate, which has ninety six wells. Each well on the plate is in a shape of a flat-bottomed microtitre. Density of the cells in a suspension was adjusted depending on the cell line. The suspension was prepared by diluting the grown cells with the culture medium (RPMI 1640). […] Then add 50 μl of culture medium (RPMI 1640) only to 6 wells, 50 μl/well, among the 96 wells of one plate. It is called controlled. One well is filled with culture medium plus 5-FU. And another 50 μl of culture medium plus one of the stock solutions were added to each of the left 89 wells to allow cells to resume exponential growth.
The cytotoxic activity test was executed with three plates simultaneously to check reliability of the data obtained. The three plates contain the same samples of cancer cells. The three plates were then incubated for 3-7 days under the same controlled atmosphere and cell proliferation was assessed with a modified propodium iodide fluorescence assay. After thawing of the plates, fluorescence was measured using a Millipore Cytofluor 2350-microplate reader (excitation 530 nm emission 620 nm) in order to quantify the total cell number. The assay included untreated and positive controls containing 5-FU.
Growth inhibition is defined as (numbers of cancer cell alive) treated (T)/(number of cells) control (C)×100% (T/C %).

[2] = system: RXF 944LX; assay: Dose finding study in human renal cancer model RXF 944LX in nude mice (i.p. days 0, 7, 14)
Description: In a dose finding study, the potential anticancer activity of sodium meta-arsenite and arsenic acid sodium salt versus arsenic trioxide was examined in the human renal cancer model, RXF 944LX.
(§3) Cancer fragments (1-2 mm in diameter), obtained from xenografts in serial passage in nude mice, were implanted subcutaneously (S.C.) in a flank of male NRMI nude mice (one fragment per mouse). Mice with appropriate cancer volumes (5-7 mm in diameter) were randomly distributed to treatment and control groups (4 mice/group). The start of treatment was day 0. Cancer volume and body weights were measured at least twice per week.
1) Sodium meta-arsenite (3, 10, 30 mg/kg/day), 2) Arsenic acid sodium salt (3, 10, 30 mg/kg/day) and 3) Arsenic trioxide (3, 10, 30 mg/kg/day) were administered intraperitoneally (i.p.) once daily on days 0, 7 and 14.
Stock solution of sodium meta-arsenite and arsenic acid sodium salt (3 mg/ml) were prepared in 5% (w/v) dextrose solution, respectively, to minimize acute arsenic toxicity. For arsenic trioxide, 9 mg of arsenic trioxide was dissolved in 1M NaOH (75 μl) followed by mixing with sterile aqua injectabilia (2175 μl) and sterile 20% (w/v) dextrose in water (500 μl). Further dilution to the desired concentration was done with a 5% dextrose solution to give a final concentration of 3 mg/ml.
(§4) The cancer volume of each animal was determined by two-dimensional measurement using calipers. The volume was calculated according to the formula: (a×b^2)×0.5; wherein a and b represent two perpendicular diameters in which a (length) is the larger diameter and b (width) the smaller diameter.
(§5) Relative cancer volumes (RCV) were calculated for each individual cancer by dividing the cancer volume on day X by the cancer volume on day 0 multiplied by 100%. The cancer volume of a treatment group was expressed as the median RCV of all mice of the group. Median RCV values were used for drawing growth curves and treatment evaluation. Optimal cancer growth inhibition at a particular day within the treatment period was calculated from the median RCV values of the treated (T) versus the controlled (C) group multiplied by 100%. A T/C value<50% was considered as anti-cancer activity.

[3] = system: GXF 251L (gastric); conditions: resistant
Experimental: as §1
as §2, with “1640). Concentration of the cells were varied from 5×10^4 to 1×10^5 viable cells/ml. 100 μl of the suspension was placed in each well of the plate.” for “1640).”
(§6) In a further study, the cytotoxic activity profile of sodium meta-arsenite and arsenic acid sodium salt was investigated in different panels containing twelve (12) human cancer cell lines from eight (8) kinds of human cancers. The cancer cell samples were prepared as described in 1-1-B. Propidium iodide fluorescence assay method for this test was modified as the follows.

[4] = system: LXFA 629L; conditions: LXFA 629L non-small cell lung; resistant
Experimental: as §1
as §2, with “1640). Concentration of the cells were varied from 5×10^4 to 1×10^5 viable cells/ml. 100 μl of the suspension was placed in each well of the plate.” for “1640).”
as §6

[5] = system: LXFE 66NL; conditions: LXFE 66NL non-small cell lung; resistant
Experimental: as §1
as §2, with “1640). Concentration of the cells were varied from 5×10^4 to 1×10^5 viable cells/ml. 100 μl of the suspension was placed in each well of the plate.” for “1640).”
as §6

[6] = system: RXF393NL (renal); conditions: resistant
Experimental: as §1
as §2, with “1640). Concentration of the cells were varied from 5×10^4 to 1×10^5 viable cells/ml. 100 μl of the suspension was placed in each well of the plate.” for “1640).”
as §6

[7] = system: RXF 944LX; assay: Anticancer activity in RXF 944LX cancer bearing nude mice, intermittent and daily schedules; conditions: for MTD: i.p., RXF 944LX
Experimental: as §3, §4, §5
In the experiment with renal cancer RXF 944LX, the anticancer activity of the compounds was explored using two administration schedules; 1) intermittent schedule of 4 days×3, and 2) a daily schedule for 2 weeks (days 0-4, 7-11).
The dose levels chosen for sodium meta-arsenite and arsenic acid sodium salt in these schedules were based on the experience in the 1st experiment. Additional small dose finding studies were executed.

[8] = system: panel of 12 human cancer cell lines; assay: Cytotoxic activity, whole panel of 12 human cancer cell lines, modified propidium iodide assay; conditions: panel of 12 human cancer cell lines, 4 days
Experimental: as §1
as §2, with “1640). Concentration of the cells were varied from 5×10^4 to 1×10^5 viable cells/ml. 100 μl of the suspension was placed in each well of the plate.” for “1640).”
as §6

[9] = mean over human cancer cell lines tested (9 line panel)
[10] = 32 mg/kg i.p., days 0-4, 7, 14-18

For arsenic acid sodium salt, the “Assessment from comparison of the IC50 values” ([1]; 9 cell line panel) was “inactive”, the IC50 [1, 9] was 99 µM and the IC90 [1, 9] was 248 µM. For the same substance, the “Mean IC50” value [1, 9] was 30.8 µg/mL, the “Mean IC90” value [1, 9] was 77.5 µg/mL and the “Mean IC70” value ([1]; mean over human cancer cell lines tested (9 line panel), sodium salt) was 44.7 μg/ml and 143 μM. For the same substance, the “BW loss % (day)” value ([2]; 3 mg/kg i.p., days 0, 7, 14) was “+15 (21) %”, the Drug-related deaths ([2]; 3 mg/kg i.p., days 0, 7, 14) was 0/4 and the Rating ([2]; 3 mg/kg i.p., days 0, 7, 14) was “− (−T/C ≧ 50%)”. For the same substance, the “SGD (specific growth delay)” value ([2]; 3 mg/kg i.p., days 0, 7, 14) was −0.5, the T/C % ([2]; 3 mg/kg i.p., days 0, 7, 14) was 90% and the “BW loss % (day)” value ([2]; 10 mg/kg i.p., days 0, 7, 14) was “+10 (21) %”. For the same substance, the Drug-related deaths ([2]; 10 mg/kg i.p., days 0, 7, 14) was 0/4, the Rating ([2]; 10 mg/kg i.p., days 0, 7, 14) was “− (−T/C ≧ 50%)” and the “SGD (specific growth delay)” value ([2]; 10 mg/kg i.p., days 0, 7, 14) was −0.2. The T/C % ([2]; 10 mg/kg i.p., days 0, 7, 14) was 74%, the “BW loss % (day)” value ([2]; 30 mg/kg i.p., days 0, 7, 14) was “+14 (21) %” and the Drug-related deaths ([2]; 30 mg/kg i.p., days 0, 7, 14) was 0/4. The Rating ([2]; 30 mg/kg i.p., days 0, 7, 14) was “− (−T/C ≧ 50%)”, the “SGD (specific growth delay)” value ([2]; 30 mg/kg i.p., days 0, 7, 14) was 0.1 and the T/C % ([2]; 30 mg/kg i.p., days 0, 7, 14) was 88%. The “T/C values of the 3 treatment groups” value ([2]; 3, 10, 30 mg/kg/day i.p., days 0, 7, 14) was “greater than 74%”, the “Maximum Tolerated Dose (MTD)” value ([2]; i.p. once daily on days 0, 7 and 14, RXF 944LX bearing nude mice) was “greater than 30 mg/kg/day” and the IC70 [3] was greater than 100 µg/mL. It also gave an IC70 [4] greater than 100 µg/mL, an IC70 [5] greater than 100 µg/mL and an IC70 [6] greater than 100 µg/mL. The “BW loss % (day)” value ([7]; 16 mg/kg i.p., days 0-4, 7-11) was −8 (14) %, the Drug-related deaths ([7]; 16 mg/kg i.p., days 0-4, 7-11) was 2/6 and the “SGD (specific growth delay)” value ([7]; 16 mg/kg i.p., days 0-4, 7-11) was 0. The T/C % ([7]; 16 mg/kg i.p., days 0-4, 7-11) was 76%, the “BW loss % (day)” value ([7]; 30 mg/kg i.p., days 0, 4, 8) was “+25 (14) %” and the Drug-related deaths ([7]; 30 mg/kg i.p., days 0, 4, 8) was 1/6. For the same substance, the “SGD (specific growth delay)” value ([7]; 30 mg/kg i.p., days 0, 4, 8) was −0.2, the T/C % ([7]; 30 mg/kg i.p., days 0, 4, 8) was 100% and the “BW loss % (day)” value [7, 10] was −10 (14) %. For the same substance, the Drug-related deaths [7, 10] was 3/6, the “BW loss % (day)” value ([7]; 45 mg/kg i.p., days 0, 4, 8) was “+22 (14) %” and the Drug-related deaths ([7]; 45 mg/kg i.p., days 0, 4, 8) was 2/6. For the same substance, the “SGD (specific growth delay)” value ([7]; 45 mg/kg i.p., days 0, 4, 8) was −0.3, the T/C % ([7]; 45 mg/kg i.p., days 0, 4, 8) was 100% and the MTD ([7]; daily schedule (days 0-4, 7-11)) was 16 mg/kg/day. For the same substance, the MTD ([7]; intermittent schedule (4 days×3)) was 45 mg/kg/day, the “Mean IC50” value [8] was 25.5 µg/mL and the “Mean IC90” value [8] was 76.6 µg/mL. The “Mean IC70” value ([8]; sodium salt) was 40.1 μg/ml and 129 μM, the IC50 ([8]; read-out: Mean IC50) was 82 µM and the IC90 ([8]; read-out: Mean IC90) was 246 µM.
